Data from article PMC8401404 (Molecules, 2021).
Where a name gives a salt, the structure may show the parent alone.

Key:
HCC827 [1] = experiment: BrdU proliferation assay, 3D hanging drop cell culture; format: cell-based, human; settings: Homo sapiens, HCC827, 3D, BrdU, n = 2, read-out: Proliferation Assay IC50 ± SD
Description: (§1) MTS assay gives us information about the number of living cells, in this case, metabolically active cells, whereas the BrdU proliferation assay gives a measure of the cell population in active division phase. Both assays were performed in 2D and 3D assay formats. For the 2D cell assay format, we used classic two-dimensional in vitro assays and as a 3D assay we used a hanging drop proliferation cell assay as previously described. We explored the activity of compounds on three human lung cancer cell lines, A549, HCC827 and NCI-H358. The compound activity was also tested on human lung fibroblast cell line MRC-5. A two-dimensional in vitro viability assay was performed on the MRC-5 cell line to see if tested compounds are cytotoxic on normal cell lines in low concentrations. […] 7.1.
(§2) Test compounds were synthesized by a research group at the Department of Organic Chemistry, Faculty of Chemical Engineering and Technology, University of Zagreb. […] Compounds were diluted 1:3. We transferred 500 nL (for 2D cell culture) or 400 nL (for 3D cell culture) of the compound from a mother plate to test plate by using Mosquito (TTP labtech). DMSO percentage in test concentrations was 0.5–1.0%. Starting concentration of the test compounds and standard compound doxorubicin was 50 µM (2D cell culture) or 100 µM (3D cell culture).
(§3) Cells were grown in 96-well Perfecta 3D hanging drop plates 5000 cell/well for 4 days until spheres were formed (and checked under the microscope). After sphere formation cells were treated with compounds followed by 72 h incubation. Cell viability assay was performed according to the manufacturer’s instructions, using CellTiter GLO 3D for 3D cell culture (Promega); cell incubation was 5 min on the shaker followed by 25 min incubation in the dark. Plates were read using PE EnVision luminescence.
(§4) Proliferation assay was performed using Cell Proliferation ELISA, BrdU (Sigma, St. Louis, MO, USA). Briefly, 48 h hours after compound addition, 10 µM of BrdU was added to each well and incubated for the following 24 h. After incubation, a single cell suspension was made for 3D cell culture in the new 96-well plate. Plates were centrifuged and supernatants were removed from each plate (for 2D and 3D cell culture) followed by 60 min incubation at 60 °C. The rest of the proliferation assay was performed according to the manufacturer’s instructions.
(§5) Calculation of IC50 data, curves and QC analysis was performed by using Excel tools and GraphPadPrism software (La Jolla, CA, USA), v. […] QC criteria parameters (Z’, S:B, R2, HillSlope) were checked for every IC50 curve.

A549 [2] = experiment: as above; format: cell-based, human; settings: Homo sapiens, A549, 3D, BrdU, n = 2, read-out: Proliferation Assay IC50 ± SD
Description: as §1, §2, §3, §4, §5

NCI-H358 [3] = experiment: as above; format: cell-based, human; settings: Homo sapiens, NCI-H358, 3D, n = 2, read-out: Proliferation Assay IC50 ± SD
Description: as §1, §2, §3, §4, §5

HCC827 [4] = experiment: BrdU proliferation assay, 2D cell culture; format: cell-based, human; settings: Homo sapiens, HCC827, 2D, BrdU, n = 2, read-out: Proliferation Assay IC50 ± SD
Description: as §1, §2
(§6) Cells were grown in 96-well cell star polystyrene plates. We seeded 10,000 cells/well in wells 4 h prior to the treatment with different compounds concentrations and incubated for 72 h. A cell viability assay was performed according to the manufacturer’s instructions, using CellTiter 96 aqueous solution, MTS kit (Promega, Madison, WI, USA). After 0.5–2 h of cell incubation with MTS in 2D cell culture, the plates were read using PE EnVision absorbance at 490 nm.
as §4, §5

A549 [5] = experiment: BrdU proliferation assay, 2D cell culture; format: cell-based, human; settings: Homo sapiens, A549, 2D, BrdU, n = 2, read-out: Proliferation Assay IC50 ± SD
Description: as §1, §2, §6, §4, §5

NCI-H358 [6] = experiment: BrdU proliferation assay, 2D cell culture; format: cell-based, human; settings: Homo sapiens, NCI-H358, 2D, n = 2, read-out: Proliferation Assay IC50 ± SD
Description: as §1, §2, §6, §4, §5

[7] = system: poly dA-poly dT (DNA, polymer) A/T; experiment: UV thermal melting at 260 nm; settings: Na+ (sodium cacodylate, I = 0.05 M), pH 7.0, r = [compound]/[polynucleotide phosphate] = 0.3, error ±0.5, per base
poly(dAdT)2 = experiment: Thermal melting experiments; format: binding; settings: r = 0.3, pH 7.0, sodium cacodylate buffer I = 0.05 mol dm^−3; error ±0.5 °C
Excerpt: (§7) The thermal stability of helices is usually affected by the non-covalent binding of small molecules to double-stranded nucleic acids. We determined the ΔTm value (the difference between the Tm value of free polynucleotide and a complex with a small molecule) for complexes of selected compounds with ctDNA and an alternating polynucleotide, poly(dAdT)2. […] Because of this, we determined ΔTm value with non-alternating AT-DNA, poly dA-poly dT as well.

poly dA-poly dT = experiment: Thermal melting experiments; format: binding; settings: r = 0.3, pH 7.0, sodium cacodylate buffer I = 0.05 mol dm^−3; error ±0.5 °C
Excerpt: as §7

S. aureus ATCC 29213 = experiment: Broth microdilution testing (CLSI); format: cell-based, Staphylococcus aureus; settings: Staphylococcus aureus, ATCC29213, broth microdilution, 16–24h at 37 °C; read-out: MIC S. aureus ATCC 29213
Description: (§8) Broth microdilution testing was performed according to CLSI (Clinical Laboratory Standards Institute) guidelines. MIC (minimal inhibitory concentration) value was defined as the last tested concentration of compound at which there is no visible growth of bacteria. […] Clinical and Laboratory Standards Institute (CLSI) guidelines.

HCC827 [8] = experiment: MTS cytotoxicity assay, 2D cell culture; settings: Homo sapiens, HCC827, 72 h, read-out: Cytotoxicity Assay IC50 ± SD; HCC827 2D
Description: as §1, §2, §6, §5

A549 [9] = experiment: MTS cytotoxicity assay, 2D cell culture; settings: read-out: Cytotoxicity Assay IC50 ± SD, A549 2D, 72 h, MTS, n = 2
Description: as §1, §2, §6, §5

NCI-H358 [10] = experiment: MTS cytotoxicity assay, 2D cell culture; settings: Homo sapiens, NCI-H358, 72 h, read-out: Cytotoxicity Assay IC50 ± SD; NCI-H358 2D
Description: as §1, §2, §6, §5

ctDNA = experiment: Thermal melting experiments; format: binding, calf; settings: r = [compound]/[polynucleotide] = 0.3, pH 7.0, sodium cacodylate buffer I = 0.05 mol dm^−3; error ±0.5 °C
Excerpt: as §7

[11] = system: poly(dAdT)2 (DNA, polymer) AT; experiment: UV thermal melting at 260 nm; settings: Na+ (sodium cacodylate, I = 0.05 M), pH 7.0, r = [compound]/[polynucleotide phosphate] = 0.3, error ±0.5, per base
[12] = Solubility in water (stock solutions)
E. coli ATCC 25922 = experiment: Broth microdilution testing (CLSI); format: cell-based, Escherichia coli; settings: Escherichia coli, ATCC25922; broth microdilution, 16–24h at 37 °C; read-out: MIC E. coli ATCC 25922
Description: as §8

S. cerevisiae ATCC 7752 = experiment: Broth microdilution testing (CLSI); format: cell-based, Saccharomyces cerevisiae; settings: Saccharomyces cerevisiae, ATCC7752; broth microdilution, 16–24h at 37 °C; read-out: MIC S. cerevisiae ATCC 7752
Description: as §8

HCC827 [13] = experiment: Cytotoxicity (viability) assay, 3D hanging drop cell culture; settings: Homo sapiens, HCC827, 72 h, read-out: Cytotoxicity Assay IC50 ± SD; HCC827 3D
Description: as §1, §2, §3, §5

A549 [14] = experiment: as above; settings: Homo sapiens, A549, 72 h, read-out: Cytotoxicity Assay IC50 ± SD; A549 3D
Description: as §1, §2, §3, §5

NCI-H358 [15] = experiment: as above; settings: Homo sapiens, NCI-H358, 72 h, read-out: Cytotoxicity Assay IC50 ± SD; NCI-H358 3D
Description: as §1, §2, §3, §5

[16] = MTS cytotoxicity assay, 2D cell culture, normal lung fibroblasts; settings: human, MRC-5 normal lung fibroblasts, 2D culture
Description: as §1, §2, §6, §5

[17] = system: poly(dAdT)2 (DNA, polymer) AT; experiment: CD titration; settings: Na+ (sodium cacodylate, I = 0.05 M), pH 7.0, 25 °C, polynucleotide 3.0 × 10^-5 M
calf thymus DNA (ctDNA) = experiment: Fluorimetric titrations with ctDNA; settings: fluorescence titrations, Scatchard equation, pH 7.0, sodium cacodylate buffer I = 0.05 mol dm-3
Description: The UV/vis spectra were recorded on a Varian Cary 100 Bio spectrophotometer, CD spectra on JASCO J815 spectrophotometer and fluorescence spectra on a Varian Cary Eclipse spectrophotometer.
Spectrophotometric titrations were performed at pH = 7 (I = 0.05 mol dm^−3, sodium cacodylate buffer) by adding portions of polynucleotide solution into the solution of the studied compound for fluorimetric experiments and CD experiments were performed by adding portions of the compound stock solution into the solution of a polynucleotide. In fluorimetric experiments excitation wavelengths of λexc = 350, 370 and 390 nm were used to avoid the inner filter effect caused due by increasing absorbance of the polynucleotide (Figures S3 and S4). Emission was collected in the range λem = 400–600 nm (SI).
aTitration data were processed using Scatchard equation, correlation coefficients were >0.97-
0.99 for all calculated Ks

Compound	IC50 (HCC827 [1])	IC50 (A549 [2])	IC50 (NCI-H358 [3])	IC50 (HCC827 [4])	IC50 (A549 [5])	IC50 (NCI-H358 [6])	ΔTm poly (dAdT)2 (poly(dAdT)2)	ΔTm Poly dA-poly dT (poly dA-poly dT)	MIC (S. aureus ATCC 29213)	IC50 (HCC827 [8])	IC50 (A549 [9]; Homo sapiens, A549, 72 h)	IC50 (NCI-H358 [10])	ΔTm ctDNA (ctDNA)	solubility [12]	MIC (E. coli ATCC 25922)	MIC (S. cerevisiae ATCC 7752)	IC50 (HCC827 [13])	IC50 (A549 [14])	IC50 (NCI-H358 [15])	IC50 at 72 h [16]	also measured
Cl.O=[N+]([O-])c1ccc(-c2ccc(-c3nc4ccc(C5=NCCN5)cc4s3)o2)cc1 [Compound 6, 6-(4,5-Dihydro-1H-imidazol-2-yl)-2-[5-(4-nitrophenyl)furan-2-yl]benzothiazole hydrochloride]	7.63 ± 5 µM	5.52 ± 0.1 µM	2.36 ± 1.17 µM	16.7 ± 9.39 µM	2.27 ± 0.13 µM	1.1 ± 0.001 µM	3.6 °C	5.6 °C	> 100 µM	5.13 ± 0.97 µM	2.12 ± 0.21 µM	0.85 ± 0.05 µM	3.2 °C	1720 µM	> 100 µM	1.6 µM	7.02 ± 3.25 µM	4.01 ± 0.95 µM	1.73 ± 0.01 µM	3.11 ± 0.26 µM	ΔTm [7]: 5.6 °C; ΔTm [11]: 3.6 °C; melting point: 287 to 292 °C
CC(C)NC(=N)c1ccc2nc(-c3ccc(-c4ccc(Cl)cc4)o3)sc2c1	–	–	–	–	–	–	–	–	–	–	–	–	–	–	–	–	–	–	–	–	ΔTm [7]: 4.3 °C; ΔTm [11]: 3.6 °C; binding [17]: yes
CC(C)NC(=N)c1ccc2nc(-c3ccc(-c4ccc([N+](=O)[O-])cc4)o3)sc2c1 [Compound 5, 2-[5-(4-Nitrophenyl)furan-2-yl]-6-N-isopropilamidinobenzothiazole hydrochloride]	14.7 ± 13.4 µM	65.9 ± 3.66 µM	14.3 ± 0.84 µM	13.7 ± 3.13 µM	4.76 ± 1.03 µM	3.56 ± 0.18 µM	4.8 °C	5.5 °C	50 µM	19.3 ± 1.72 µM	8.76 ± 1.69 µM	9.97 ± 0.59 µM	2.5 °C	3000 µM	> 100 µM	12.5 µM	43.6 ± 6.45 µM	26.4 ± 13.4 µM	14.8 ± 0.57 µM	21.7 ± 0.51 µM	Binding constants (logKs) with ctDNA (calf thymus DNA (ctDNA)): 6.4
CC(C)NC(=N)c1ccc2nc(-c3ccc(-c4ccc(Cl)cc4)o3)sc2c1 [Compound 8, 2-[5-(4-Chlorophenyl)furan-2-yl]-6-N-isopropilamidinobenzothiazole hydrochloride]	17.8 ± 4.24 µM	19.9 ± 2.19 µM	11.3 ± 0.49 µM	13.5 ± 0.81 µM	8.78 ± 3.62 µM	6.68 ± 0.15 µM	3.6 °C	4.3 °C	12.5 µM	6.26 ± 0.33 µM	6.75 ± 0.19 µM	6.48 ± 0.11 µM	1.7 °C	3000 µM	> 100 µM	6.25 µM	20.5 ± 8.63 µM	9.31 ± 0.78 µM	16 ± 9.38 µM	9.88 ± 2.38 µM	IC50 (A549 [9]): 6.74 ± 0.19 µM; Binding constants (logKs) with ctDNA (calf thymus DNA (ctDNA)): 6.3
